Laboratory results published in patent US20080280933A1, “BENZIMIDAZOLYL COMPOUNDS” (priority 2006, published 2008).
Like-named read-outs stand apart in the source and are kept apart here. One block for each molecule: values may come before it.

Molecular target: T1, mGluR2 receptor (metabotropic glutamate receptor 2) (Homo sapiens, UniProt Q14416)
T1 construct: expressed in transfected cells
Test: mGluR2 Potentiator Screen, FLIPR, EC10-EC20 glutamate challenge
Format: cell-based
Conditions: read-out: EC50
Summary of the method: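 HEK cells stably co-expressing mGluR2 and Gα15, kept glutamine-free overnight, were loaded with Fluo-4 plus probenecid and GPT/pyruvate. Compounds (top 10 μM) were added ≥30 min before an EC10–EC20 glutamate challenge. Peak FLIPR fluorescence ratios were curve-fitted, excluding points above maximal effect, with maxima from on-plate standards.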

T1 sequence (Q14416 19-872, species assumed): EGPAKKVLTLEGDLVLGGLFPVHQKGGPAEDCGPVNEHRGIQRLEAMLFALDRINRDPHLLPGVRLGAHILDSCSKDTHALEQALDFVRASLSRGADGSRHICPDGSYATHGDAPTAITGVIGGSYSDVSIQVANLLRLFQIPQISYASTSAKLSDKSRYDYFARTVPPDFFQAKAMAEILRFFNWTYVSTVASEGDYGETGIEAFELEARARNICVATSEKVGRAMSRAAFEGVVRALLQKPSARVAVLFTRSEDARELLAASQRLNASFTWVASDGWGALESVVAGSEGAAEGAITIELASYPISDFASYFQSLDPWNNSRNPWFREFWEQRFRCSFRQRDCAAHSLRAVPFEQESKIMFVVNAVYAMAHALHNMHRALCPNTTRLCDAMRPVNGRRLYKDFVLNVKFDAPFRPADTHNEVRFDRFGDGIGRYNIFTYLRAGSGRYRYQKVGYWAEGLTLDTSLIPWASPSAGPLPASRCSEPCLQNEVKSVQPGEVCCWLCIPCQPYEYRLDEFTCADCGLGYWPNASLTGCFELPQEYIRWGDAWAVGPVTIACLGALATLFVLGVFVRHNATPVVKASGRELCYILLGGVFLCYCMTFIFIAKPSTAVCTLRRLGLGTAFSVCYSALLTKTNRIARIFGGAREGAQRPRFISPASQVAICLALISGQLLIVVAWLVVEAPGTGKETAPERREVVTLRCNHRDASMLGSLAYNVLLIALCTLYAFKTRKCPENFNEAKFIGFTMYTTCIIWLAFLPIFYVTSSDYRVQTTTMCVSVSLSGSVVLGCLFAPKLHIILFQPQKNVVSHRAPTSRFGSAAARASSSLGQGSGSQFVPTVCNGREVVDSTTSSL

Molecule: Cn1c(CN2CCC(c3cc(F)cc4c3OCCC4)CC2)nc2ccccc21 [compound 431]
EC50: 5340 nM

Molecule: Cn1c(CN2CCC(F)(c3ccc(Cl)cc3)CC2)nc2ccccc21 [compound 432]
EC50: 257 nM

Molecule: Cn1c(CN2CCC(F)(c3ccc(F)cc3)CC2)nc2ccccc21 [compound 434]
EC50: 308 nM

Molecule: Cc1cccc(NC(=O)c2cccc(C3CCN(Cc4nc5ccccc5n4C)CC3)c2)n1 [compound 435]
EC50: 3300 nM

Molecule: CCCN(CC1CC1)C(=O)c1cccc(C2CCN(Cc3nc4ccccc4n3C)CC2)c1 [compound 436]
EC50: 2210 nM

Molecule: Cn1c(CN2CCC(c3ccc(C(=O)NC4CCCC4)cc3)CC2)nc2ccccc21 [compound 437]
EC50: 5270 nM

Molecule: Cn1c(CN2CCC(F)(c3ccc(F)cc3)CC2)nc2cccc(F)c21 [compound 439]
EC50: 460 nM

Molecule: Cn1c(CN2CCC(c3ccc(C(F)(F)F)cc3)C(F)C2)nc2ccccc21 (stereo not shown) [compound 441]
EC50: 157 nM

Molecule: CCOc1ccc(C2CCN(Cc3nc4ccccc4n3C)CC2)cc1 [compound 442]
EC50: 80.7 nM

Molecule: Cn1c(CN2CCC(c3ccc(F)c(Cl)c3)CC2)nc2ccccc21 [compound 443]
EC50: 57 nM

Molecule: Cn1c(CN2CCC(c3ccc(F)c(Cl)c3)CC2)nc2cccc(F)c21 [compound 444]
EC50: 131 nM

Molecule: Cn1c(CN2CCC(c3ccc(Cl)c(C(F)(F)F)c3)CC2)nc2ccccc21 [compound 446]
EC50: 42.9 nM

Molecule: Cn1c(CN2CCC(c3ccc(Cl)c(F)c3)CC2)nc2ccccc21 [compound 450]
EC50: 79 nM

Molecule: Cn1c(CN2CCC(c3ccc(Cl)cc3F)CC2)nc2ccccc21 [compound 451]
EC50: 7.57 nM

Molecule: Cn1c(CN2CCC(c3cccc(F)c3F)CC2)nc2ccccc21 [compound 452]
EC50: 20.2 nM

Molecule: Cn1c(CN2CCC(c3ccc(Cl)c(F)c3)CC2)nc2cccc(F)c21 [compound 453]
EC50: 157 nM

Molecule: Cn1c(CN2CC[C@@H]3c4ccccc4OC[C@H]3C2)nc2ccccc21 [compound 470]
EC50: 1520 nM

Molecule: Cn1c(CN2CC[C@H]3c4ccccc4OC[C@H]3C2)nc2ccccc21 [compound 471]
EC50: 2070 nM

Molecule: Methyl 2-((4-(2-methoxyphenyl)piperidin-1-yl)methyl)-1-methyl-1H-benzo[d]imidazole-5-carboxylate [Entry 296]
EC50 (listed as 11): 3640 nM
EC50: 414 nM

The next lines start with the values.

EC50: 3310 nM
Molecule: Cn1c(CN2CCC(c3cccc(F)c3)CC2)nc2ccccc21 [compound 430]

EC50: 122 nM
Molecule: Cn1c(CN2CCC(F)(c3ccc(C(F)(F)F)cc3)CC2)nc2ccccc21 [compound 433]

EC50: 81 nM
Molecule: COc1cccc(F)c1C1CCN(Cc2nc3ccccc3n2C)CC1 [compound 438]

EC50: 2850 nM
Molecule: CC1=C(c2ccccc2)C(C)CN(Cc2nc3ccccc3n2C)C1 (stereo not shown) [compound 440]

EC50: 137 nM
Molecule: Cn1c(CN2CCC(c3ccc(C(F)(F)F)cc3)C(F)C2)nc2cccc(F)c21 (stereo not shown) [compound 445]

EC50: 45.6 nM
Molecule: Cn1c(CN2CCC(c3ccc(F)c(Cl)c3)CC2)nc2cc(F)ccc21 [compound 447]

EC50: 88.2 nM
Molecule: Cn1c(CN2CCC(c3ccc(Cl)c(F)c3)CC2)nc2cc(F)ccc21 [compound 454]

EC50: 2590 nM
Molecule: C[C@@H]1CN(Cc2ccc(C3CCN(Cc4nc5ccccc5n4C)CC3)cc2)C[C@H](C)O1 [compound 455]

EC50: 41.9 nM
Molecule: Cn1c(CN2CCC(c3ccc(Cl)cc3F)CC2)nc2cc(F)ccc21 [compound 458]

EC50: 76.7 nM
Molecule: CC1CN(Cc2nc3ccccc3n2C)CCC1c1ccc(OC(F)(F)F)cc1F (stereo not shown) [compound 474]

EC50: 914 nM
Molecule: (2-((4-(2-Fluorophenyl)piperidin-1-yl)methyl)-1-methyl-1H-benzo[d]imidazol-5-yl)methanol [Entry 297]
